Read-outs that look alike come from different tables or passages of the source.

Data set [1] has as its system pooled human liver microsomes. The conditions noted are these: MDZ and efavirenz; cited from earlier work.
A further data set deals with hepatic CYP3A activity. As to conditions: time after (first) perpetrator drug administration.
Another data set relates to CYP3A. As to conditions: cited from earlier work.
Data set [2] is classed as in vivo, human.
The conditions of data set [3]: cited from earlier work.
Where [4] appears, read: calculated from model parameters.
[5] abbreviates: metabolite in the absence of parent compound, ref Hotz et al. 27.
Where [6] appears, read: ref Wiebe et al. 23, Tomalik-Scharte et al. 25.
[7] abbreviates: oral and i.v. bolus administration.

In the case of `O=C1Nc2ccc(Cl)cc2[C@@](C#CC2CC2)(C(F)(F)F)O1` [efavirenz], the “Increase in metabolite formation rates” value in data set [1] is listed as ~ 1.5 fold. In the data set on hepatic CYP3A activity, the “Time of maximum CYP3A modulatory effect” value lay in the range of 2 to 4 h. The “Increase in MDZ CL” value in the data set with CYP3A (12 h after efavirenz administration, ref Mikus et al. 32) is 27%.
For the molecule `OCc1ncc2n1-c1ccc(Cl)cc1C(c1ccccc1F)=NC2` [1’-OH-MDZ, 1’-hydroxymidazolam], in data set [2] (setting [4]), the “Elimination rate constant of 1’-OH-MDZ” value is 0.880 h⁻¹ and the “Formation rate constant of 1’-OH-MDZ” value is 0.712 h⁻¹. Further, the “IIV of 1’-OH-MDZ CL” value in data set [2] (interindividual variability) was 42.0 %CV. Moreover, in data set [2] (population estimate after metabolic conversion of MDZ), the “1’-OH-MDZ CL” value is reported as 264 L/h. In data set [3] (setting [5]), the “1’-OH-MDZ CL, reported” value is 34.4 to 56.7 L/h and the “1’-OH-MDZ V, reported” value is 49.7 to 79.8 L. For the same molecule, in data set [3] (setting [6]), the “1’-OH-MDZ CL, reported” value was 186 to 208 L/h and the “1’-OH-MDZ V, reported” value is 256 to 876 L.
Consider `Cc1ncc2n1-c1ccc(Cl)cc1C(c1ccccc1F)=NC2` [midazolam], for which, in data set [2] (human, plasma, intravenous), the Vd came to 56.7 L and the clearance was 732 mL/min. In data set [2] (interindividual variability), the “IIV of MDZ CL” value came out at 21.9 %CV and the “IIV of MDZ volume of distribution” value is on record as 29.9 %CV. Besides, in data set [3] (setting [7]), the “MDZ CL, reported” value was 15.2 to 45.0 L/h and the “MDZ V, reported” value is 33.3 to 180 L/h.
Regarding `C[C@@H](c1ncncc1F)[C@](O)(Cn1cncn1)c1ccc(F)cc1F` [voriconazole], the Oral bioavailability in data set [3] is greater than 90%. Besides, the “Decrease in hepatic CYP3A activity” value with CYP3A (within 12 h after oral voriconazole, semi-physiological model) is recorded as 75%.

The values are drawn from publication PMC9652212 (Clinical Pharmacokinetics, 2022).
